Results taken from patent publication US20240317792A1, “CYCLIC DINUCLEOTIDE METAL COMPOUND, AND PREPARATION AND APPLICATION THEREOF” (HANGZHOU XINGAO BIOTECHNOLOGY CO., LTD., priority 2022, published 2024).

Assays:
[1] = system: APP/PSI transgenic AD model mice; test: Morris water maze spatial probe test, cognitive ability of AD model mice; assay type: in vivo; settings: 10 mg/kg intraperitoneal injection once every 2 days for 60 days
Excerpt: (§1) Experimental materials, purchased from Shanghai Model Organisms Center Inc, were APP/PSI transgenic AD model mice, aged 4 months old and weighing 24-26 g. The AD model mice were randomly divided into 7 groups (10 mice in each group). The 7 groups were listed as follows: A: AD model group, as a negative control group (administration of normal saline); B: cGAMP group, as a positive control group (administration of cyclic dinucleotide); C: [Li2(cGAMP)] group (administration of lithium cyclic dinucleotide prepared in Example 1); D: [Mg(cGAMP)] group (administration of magnesium cyclic dinucleotide prepared in Example 2); E: [Zn(cGAMP)] group (administration of zinc cyclic dinucleotide prepared in Example 5); F: [Mn(cGAMP)] group (administration of manganese cyclic dinucleotide prepared in Example 3); G: [Fe(cGAMP)] group (administration of ferrous cyclic dinucleotide prepared in Example 4). The administration in groups C-G was performed as follows. The powdered cyclic dinucleotide metal compounds were prepared into solutions of required concentration with normal saline, respectively. The administration dosage was 10 mg/kg, and the administration was performed via intraperitoneal injection once every 2 days for 60 consecutive days.
The Morris water maze test was performed in a round pool, 1 m in diameter, 50 cm high and 30 cm deep with a white bottom of the pool. Water temperature of the Morris water maze was 23±2° C. Four equidistant points, N, E, S and W, were marked on a pool wall as four starting points for tests. The pool was divided into four quadrants, and a platform, which was equidistant from the pool wall and a center of the pool, was placed in the third quadrant. The platform was immersed under water at a depth of 1 cm, so that the platform was not visible. A lot of reference clues (the reference clues were triangles, quadrangles, circles, and diamonds with different colors placed in each quadrant) were pasted around the pool and kept constant for the AD model mice to locate the platform.
A place navigation test was performed for 6 days, and the AD model mice were subjected to training 4 times per day at fixed time spans. At the beginning of the training, the platform was placed in the […]. An AD model mouse was placed into the water facing the pool wall at any one of the four starting points. A record system was used to record time and a swimming path that the AD model mouse found the platform. The AD model mouse was placed into the water at different four starting points (in different quadrants) in the 4-time-training. The AD model mouse found the platform and rested on the platform for 10 seconds followed by next test. Or if the AD model mouse could not find the platform within 90 seconds (a latency was recorded as 90 seconds), the AD model mouse was guided to the platform by an experimenter and rested for 10 seconds followed by next test.
24 h after the place navigation test, the platform was removed. Then the AD model mouse was placed into the water in the third quadrant, the swimming path in 180 s was recorded. Remain time and a number of the AD model mouse crossing through a location of the platform of the AD model mouse in a target quadrant (the third quadrant) were recorded to observe the spatial localization ability of the AD model mouse. SPSS10.0 software was used to process, and one-way analysis of variance (ANOVA) was adopted to compare significance of difference between the 7 groups.

[2] = system: mouse colorectal cancer cell line CT26; test: Subcutaneously transplanted CT26 tumor growth inhibition; assay type: in vivo, BALB/c ordinary mice; settings: CT26 in BALB/c mice; 10 mg/kg intraperitoneal once every 2 days for 20 days
Excerpt: Experimental animals: BALB/c ordinary mice and C57BL/6 ordinary mice, male, weighing 20-22 grams, 7-8 weeks old, purchased from Shanghai SLAC Laboratory Animal Co. Ltd.
Tumour cell line: mouse colorectal cancer cell line CT26 and mouse breast cancer cell line 4T1, both purchased from Chinese Academy of Sciences Cell Bank.
Establishment and intervention of tumor model mice: cells were subjected to culture and subculture, collected in a logarithmic phase and prepared as 1.0×10^7/mL of cell suspension. 0.2 mL of the cell suspension was injected armpits of forelegs of the mice (with a cell number of 2.0×10^6), and tumor transplantation was successful in about 7 days. Mice with successful tumor transplantation were randomly divided into 7 groups (10 mice in each group). The 7 groups were listed as follows: A: negative control group (injection with normal saline); B: positive control cGAMP group (10 mg/kg of injection); C: [Li2(cGAMP)] group (10 mg/kg of injection); D: [Mg(cGAMP)] group (10 mg/kg of injection); E: [Zn(cGAMP)] group (10 mg/kg of injection); F: [Mn(cGAMP)] group (10 mg/kg of injection); and G: [Fe(cGAMP)] group (10 mg/kg of injection). The mice with successful tumor transplantation were subjected to administration by intraperitoneal injection with a volume of 200 μL per mice once every 2 days for 20 days. After 20 days, the mice with successful tumor transplantation were killed, and the tumor were weighed. A formula of inhibitory rate of tumor was as represented as inhibitory rate of tumor=[1−average tumor weight of experimental group/average tumor weight of the negative control group]×100%.
According to the establishment of tumor model mice, the mouse colorectal cancer cell line CT26 was cultured and transplanted to the BALB/c ordinary mice, and the mouse breast cancer cell line 4T1 was cultured and transplanted to the BALB/c ordinary mice.
Statistical analysis: data was expressed as mean±standard deviation and processed by the SPSS10.0 software. One-way ANOVA was used to detect and compare significance of tumor weights in each group.

[3] = system: amyloid plaques in the brains of the AD model mice; test: Thioflavin S dyeing of amyloid plaque deposition in brains of AD model mice; assay type: in vivo; settings: 10 mg/kg intraperitoneal once every 2 days, 60 days
Excerpt: as §1
This example conducted a Thioflavin S dyeing experiment including the following steps. 60 days after the drug administration, brain tissues of the AD model mice were taken and subjected to fixing, paraffin embedding, section, dimethylbenzene dewaxing, gradient dehydration with ethanol and washing with tris buffered saline (TBS) three times. 0.3 wt. % of Thioflavin S (dissolved in 50 wt. % of ethanol) was dropped onto the brain tissues. The brain tissues were incubated for 10 min followed by washing with 50 wt. % of ethanol, PBS-washing, shade drying and sealing. A laser scanning confocal microscope (Leica, Germany) was used to detect changes of an amount of amyloid plaque deposition in the brains of the AD model mice.

Structure (SMILES) | Percentage of time of the AD model mice crossing through the platform in the third quadrant [1] | Average inhibitory rate of the tumor [2] | Average tumor weight [2] | Average points of amyloid plaque fluorescence intensity in the brain tissues of the AD mice (field of vision) [3]
Nc1nc2c(ncn2[C@@H]2O[C@@H]3COP(=O)([O-])O[C@H]4[C@@H](O)[C@H](n5cnc6c(N)ncnc65)O[C@@H]4COP(=O)([O-])O[C@@H]2[C@@H]3O)c(=O)[nH]1.[Zn+2] [[Zn(cGAMP)], zinc cyclic dinucleotide] | 0.86 ± 0.16% | 88.9% | 0.201 ± 0.123 g | 360 ± 75
Nc1nc2c(ncn2[C@@H]2O[C@@H]3COP(=O)(O)O[C@H]4[C@@H](O)[C@H](n5cnc6c(N)ncnc65)O[C@@H]4COP(=O)(O)O[C@@H]2[C@@H]3O)c(=O)[nH]1 [cGAMP, 2′3′-cGAMP, reference compound] | 0.62 ± 0.17% | 61.0% | 0.712 ± 0.145 g | 1790 ± 180
Nc1nc2c(ncn2C2OC3COP(=O)([O-])OC4C(COP(=O)([O-])OC2C3O)OC(n2cnc3c(N)ncnc32)C4O)c(=O)[nH]1.[Fe+2] (stereo not drawn) [[Fe(cGAMP)], ferrous cyclic dinucleotide] | 0.81 ± 0.23% | 83.5% | 0.301 ± 0.112 g | 410 ± 91
Nc1nc2c(ncn2[C@@H]2O[C@@H]3COP(=O)([O-])O[C@H]4[C@@H](O)[C@H](n5cnc6c(N)ncnc65)O[C@@H]4COP(=O)([O-])O[C@@H]2[C@@H]3O)c(=O)[nH]1.[Li+].[Li+] [[Li2(cGAMP)], lithium cyclic dinucleotide] | 0.91 ± 0.18% | 63.0% | 0.675 ± 0.163 g | 165 ± 75
Nc1nc2c(ncn2C2OC3COP(=O)([O-])OC4C(COP(=O)([O-])OC2C3O)OC(n2cnc3c(N)ncnc32)C4O)c(=O)[nH]1.[Mn+2] (stereo not drawn) [[Mn(cGAMP)], manganese cyclic dinucleotide] | 0.83 ± 0.21% | 85.8% | 0.258 ± 0.105 g | 390 ± 87
Nc1nc2c(ncn2[C@@H]2O[C@@H]3COP(=O)([O-])O[C@H]4[C@@H](O)[C@H](n5cnc6c(N)ncnc65)O[C@@H]4COP(=O)([O-])O[C@@H]2[C@@H]3O)c(=O)[nH]1.[Mg+2] [[Mg(cGAMP)], magnesium cyclic dinucleotide] | 0.78 ± 0.10% | 65.2% | 0.635 ± 0.178 g | 480 ± 80
